Source: PMC10096376, “Insecticidal and Synergistic Potential of Three Monoterpenoids against the Yellow Fever Mosquito, Aedes aegypti (Diptera: Culicidae), and the House Fly, Musca domestica (Diptera: Muscidae)” (Molecules, 2023)
Several values for one entry are separate records, joined by “and”; a condition that tells them apart may be missing. Equal entries are not always repeated. Where two headings read alike, the source gives them in different places.

Legend:
[1] = test system: Aedes aegypti; assay: Co-toxicity assay with permethrin (topical); details: for 1-h knockdown Co-Toxicity Factor / 24-h mortality Co-Toxicity Factor: >+20 potentiation, <−20 antagonism, −20 to +20 additive
Protocol: (§1) For Ae. aegypti, synergism assays were performed similar to the topical applications described previously, with the following modifications: 2 doses (2 µg/mosquito and 10 µg/mosquito) of each monoterpenoid were applied as synergists, similar to previous studies exploring the synergistic potential of natural products in combination with an intermediate dose-level of insecticide alone.
(§2) Mosquitoes were transferred to deli cups and kept at a controlled temperature and humidity (the same conditions as described for the topical application of insecticides and monoterpenoids alone). Again, a minimum of 3 separate rearing cohorts were used among replicates of each dose combination.
(§3) Dose responses were modeled via probit analysis, and their resulting estimates were obtained. […] A control correction option (OPTC command) was used to account for responses to the vehicle control treatments. Co-toxicity values were calculated by the method of [29]. A co-toxicity factor of >+20 signifies potentiation, <−20 antagonism, and −20 to +20 additive.

[2] = test system: Aedes aegypti
Protocol: as §1, §2, §3

[3] = test system: Musca domestica; assay: Co-toxicity assay with permethrin (topical); type: in vivo; details: for 1-h% Mean Knockdown ± SEM, Synergist Alone / 24-h% Mean Mortality ± SEM, Synergist Alone: 10.2 μg PBO, 70 μg carvone, 190 μg menthone, 80 μg fenchone per fly; for 1-h% Mean Knockdown ± SEM, Mixture: near-sublethal synergist dose (10.2 μg PBO, 70 μg carvone, 190 μg menthone, 80 μg fenchone) + permethrin 18 ng; for 1-h knockdown Co-Toxicity Factor / 24-h mortality Co-Toxicity Factor: near-sublethal synergist dose + permethrin, >+20 potentiation, <−20 antagonism, −20 to +20 additive; for times as potent a synergist of permethrin as PBO: 24-h mortality
Protocol: […]. Each dose was formulated in a total volume of 1.5 mL of acetone. A dose of permethrin that produced approximately 50% mortality (18 ng) was used as the treatment. Female flies were sorted into groups of 20 per synergism assay and dosed as previously mentioned (i.e., the same way as in the topical toxicity assays). Flies were assessed for mortality at 24 h.

[4] = test system: rat; details: in vivo; cited from earlier work
[5] = test system: Musca domestica; details: 24 h, topical, adult females, susceptible strain
[6] = test system: Aedes aegypti; details: for LD10 (95% CI) / LD50 (95% CI) / LD90 (95% CI): 24 h, topical, adult females, susceptible strain
[7] = cited from earlier work
[8] = test system: rabbit; details: cited from earlier work
[9] = animal and route not given; cited from earlier work
[10] = target: acetylcholinesterase (Musca domestica, UniProt Q7YWJ9); assay: In vitro inhibition of acetylcholinesterase (Ellman), head homogenate; type: biochemical; details: at 1 mM, M. domestica preparation; read-out: inhibition of AChE
acetylcholinesterase, sequence (Q7YWJ9 81-660): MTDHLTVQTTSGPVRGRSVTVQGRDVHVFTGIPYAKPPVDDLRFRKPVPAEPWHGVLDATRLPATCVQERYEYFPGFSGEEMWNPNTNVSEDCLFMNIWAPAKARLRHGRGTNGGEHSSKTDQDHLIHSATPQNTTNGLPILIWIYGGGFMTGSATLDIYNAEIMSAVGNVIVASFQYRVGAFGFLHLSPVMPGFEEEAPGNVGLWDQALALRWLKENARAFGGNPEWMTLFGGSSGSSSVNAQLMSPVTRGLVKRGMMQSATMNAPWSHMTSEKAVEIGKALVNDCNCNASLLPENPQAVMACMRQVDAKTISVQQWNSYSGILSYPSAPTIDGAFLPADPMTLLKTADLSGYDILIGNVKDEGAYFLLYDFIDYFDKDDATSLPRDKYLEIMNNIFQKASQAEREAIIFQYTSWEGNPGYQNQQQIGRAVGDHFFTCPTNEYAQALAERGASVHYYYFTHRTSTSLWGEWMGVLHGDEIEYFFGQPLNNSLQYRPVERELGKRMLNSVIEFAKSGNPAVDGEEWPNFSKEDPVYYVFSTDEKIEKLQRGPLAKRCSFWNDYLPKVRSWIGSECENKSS
Protocol: Acetylcholinesterase inhibition was conducted on homogenates of whole-body Ae. aegypti and M. domestica heads using Ellman’s method. For Ae. aegypti, 10 whole female adults were placed in 2 mL microcentrifuge screw cap tubes with 3–5.2 mm zircon/silica beads and homogenized in 500 μL of sodium phosphate buffer (100 mM, pH 7.8) using a Precellys Evolution bead beater (Bertin Corp., Rockville, MD, USA) set to two 15-s pulses of 5600 rpm. Afterward, 500 μL of Triton X-100 buffer (100 mM sodium phosphate, pH 7.8, 0.6% Triton X-100) was added to each tube (final Triton X-100 concentration: 0.3%), inverted several times to mix up the sample, and then centrifuged at 10,000× g for 4 min at 4 °C. The supernatant was used as the enzyme source. The same process was carried out with M. domestica, except three heads were processed in a 1000:1000 μL sodium phosphate buffer and Triton X-100 buffer in the same manner as just described.
Concentration responses were conducted in the wells of a 96-well, clear, flat-bottomed plate. Inhibitor solutions of methomyl or monoterpenoids were first dissolved in DMSO (dimethyl sulfoxide) and then diluted in sodium phosphate buffer (100 mM, pH 7.8, DMSO concentration of 1%). A volume of 10 μL of the inhibitor solution was added to each well, along with 90 μL of sodium phosphate buffer, and finally 10 μL of homogenate. This was incubated on a plate shaker at 400 rpm for 10 min at room temperature. The final concentrations for methomyl were 100 μM, 10 μM, 1 μM, 100 nM, 10 nM, 1 nM, and 0 nM. For the monoterpenoids, the same range was used except the top concentration was 1 mM and the bottom non-zero concentration was 10 nM. The final concentration of DMSO in all wells was 0.09%.
After the 10-min incubation, 100 μL of Ellman’s reagent prepared in sodium phosphate buffer and each corresponding inhibitor concentration were added to the wells using a multichannel pipette.
as §3

[11] = 2 μg synergist + permethrin 0.6 ng/mosquito
[12] = 10 μg synergist + permethrin 0.6 ng/mosquito
[13] = 10 μg synergist per Ae. aegypti
[14] = 2 μg synergist + methomyl 6 ng/mosquito
[15] = 2 μg synergist + methomyl, >+20 potentiation, <−20 antagonism, −20 to +20 additive
[16] = 10 μg synergist + methomyl 6 ng/mosquito
[17] = 10 μg synergist + methomyl, >+20 potentiation, <−20 antagonism, −20 to +20 additive

Row | SMILES | 1-h% Mean Knockdown ± SEM, Mixture [1, 11] | 1-h knockdown Co-Toxicity Factor ([1]; 2 μg synergist + permethrin) | 24-h mortality Co-Toxicity Factor ([1]; 2 μg synergist + permethrin) | 1-h% Mean Knockdown ± SEM, Synergist Alone ([1]; 2 μg synergist per Ae. aegypti) | 24-h% Mean Mortality ± SEM, Synergist Alone ([1]; 2 μg synergist per Ae. aegypti) | 1-h% Mean Knockdown ± SEM, Mixture [1, 12] | 1-h knockdown Co-Toxicity Factor ([1]; 10 μg synergist + permethrin) | 1-h% Mean Knockdown ± SEM, Synergist Alone [1, 13] | 24-h% Mean Mortality ± SEM, Synergist Alone [1, 13] | 1-h% Mean Knockdown ± SEM, Synergist Alone ([2]; 2 μg applied) | 24-h% Mean Mortality ± SEM, Synergist Alone ([2]; 2 μg applied) | 48-h% Mean Mortality ± SEM, Synergist Alone ([2]; 2 μg applied) | 1-h% Mean Knockdown ± SEM, Synergist Alone [3] | 24-h% Mean Mortality ± SEM, Synergist Alone [3] | 1-h% Mean Knockdown ± SEM, Mixture [3] | 1-h knockdown Co-Toxicity Factor [3] | 24-h mortality Co-Toxicity Factor [3] | LD10 (95% CI) [5] | LD90 (95% CI) [5] | LD10 (95% CI) [6] | also measured
1 | CCCCOCCOCCOCc1cc2c(cc1CCC)OCO2 [PBO, piperonyl butoxide, reference compound] | 52.5 ± 7.5% | −44.7 | 25 | 7.5 ± 2.5% | 12.5 ± 6.3% | 60 ± 14.7% | −39 | 22.5 ± 4.8% | 72.5 ± 8.5% | 7.5 ± 2.5% | 12.5 ± 6.3% | 15 ± 3.4% | 2 ± 2% | 6 ± 2.9% | 96 ± 4% | 16.2 | 55.9 | – | – | – | 1-h knockdown Co-Toxicity Factor ([2]; in vivo): −5.3; 1-h% Mean Knockdown ± SEM, Mixture ([2]; in vivo): 90 ± 10%; 24-h mortality Co-Toxicity Factor ([2]; in vivo): 14.3; 48-h mortality Co-Toxicity Factor ([2]; in vivo): 20.9
2 | CC1(C)C(C=C(Cl)Cl)C1C(=O)OCc1cccc(Oc2ccccc2)c1 (centres unmarked) [Permethrin, reference compound] | – | – | – | – | – | – | – | – | – | – | – | – | – | – | – | – | – | 0.46 (0.37–0.56) a ng/mg body weight | 1.5 (1.4–1.7) a ng/mg body weight | 0.23 (0.12–0.33) a ng/mg body weight | 1-h% Mean Knockdown ± SEM, Permethrin Alone ([1]; permethrin 0.6 ng/mosquito): 76 ± 9.2% and 87.5 ± 6.3%; 24-h% Mean Mortality ± SEM, Permethrin Alone ([1]; permethrin 0.6 ng/mosquito): 27.5 ± 4.8%; 24-h% Mean Mortality ± SEM, Permethrin Alone ([1]; permethrin 0.6 ng/mosquito, listed as permethrin): 36 ± 6%; Oral LD50 [4]: 430–4000 (rt) mg compound per kg body weight; LD50 (95% CI) [5]: 0.84 (0.79–0.93) a ng/mg body weight; LD50 (95% CI) [6]: 0.58 (0.45–0.71) a ng/mg body weight; LD90 (95% CI) [6]: 1.41 (1.08–2.24) a ng/mg body weight; aerobic soil half-life [7]: 11.6 to 113 days; 1-h% Mean Knockdown ± SEM, Permethrin Alone ([3]; permethrin 18 ng): 80 ± 7.3%; 24-h% Mean Mortality ± SEM, Permethrin Alone ([3]; permethrin 18 ng): 58 ± 10.1%; Dermal LD50 ([8]; ref 32,33 (L-fenchone), 35,36 (Permethrin), 37 (Methomyl)): 2000 (rb) mg compound per kg body weight
3 | CC(C)=C1CC[C@@H](C)CC1=O [pulegone] | – | – | – | – | – | – | – | – | – | – | – | – | – | – | – | – | – | – | – | – | LD50 [9]: 2000 to 3000 mg/kg
4 | CC(C)[C@@H]1CC[C@@H](C)CC1=O [Menthone, L-menthone] | 100 ± 0% | 19.8 | 132 | 7.5 ± 4.8% | 5 ± 2.9% | 100 ± 0% | 13 | 12.5 ± 4.8% | 15 ± 5% | 7.5 ± 4.8% | 5 ± 2.9% | 7.5 ± 2.5% | 4 ± 2.4% | 0 ± 0% | 95 ± 2.9% | 12.6 | 48.4 | 5300 (5100–5400) c ng/mg body weight | 8800 (8400–9400) c ng/mg body weight | 5000 (1000–6300) b ng/mg body weight | 24-h mortality Co-Toxicity Factor ([1]; 10 μg synergist + permethrin): 83; times as strong a synergist of permethrin as PBO ([1]; 24-h mortality, 2 μg synergist): 5.3; inhibition at 1000 µM [10]: 3.7 ± 1.2%; LD90 (95% CI) [6]: 10,000 (8500–13,100) c ng/mg body weight; times as toxic as fenchone ([6]; at LD10): about 1.5; times as toxic as fenchone ([6]; at LD50): about 1.5; times as toxic as fenchone ([6]; at LD90): about 4.2; 1-h% Mean Knockdown ± SEM, Mixture [2, 14]: 100 ± 0%; 1-h knockdown Co-Toxicity Factor [2, 15]: 0; 48-h mortality Co-Toxicity Factor [2, 15]: 7; 1-h% Mean Knockdown ± SEM, Synergist Alone ([2]; 10 μg applied): 12.5 ± 4.8%; 24-h% Mean Mortality ± SEM, Synergist Alone ([2]; 10 μg applied): 15 ± 5%; 48-h% Mean Mortality ± SEM, Synergist Alone ([2]; 10 μg applied): 22.5 ± 7.5%; 1-h% Mean Knockdown ± SEM, Mixture [2, 16]: 100 ± 0%; 1-h knockdown Co-Toxicity Factor [2, 17]: 0; 24-h mortality Co-Toxicity Factor [2, 17]: 29; 48-h mortality Co-Toxicity Factor [2, 17]: 7; times as effective a synergist of methomyl as PBO ([2]; 24-h mortality, 2 μg synergist): 2.0; times as potent a synergist of permethrin as PBO [3]: 0.9
5 | Cc1ccc(C(C)C)cc1O [carvacrol] | – | – | – | – | – | – | – | – | – | – | – | – | – | – | – | – | – | – | – | – | LD50 [9]: 2000 to 3000 mg/kg
6 | CC12CCC(C1)C(C)(C)C2=O [Fenchone, L-fenchone] | 100 ± 0% | 32.0 | 160 | 0 ± 0% | 2.5 ± 2.5% | 100 ± 0% | 16 | 10 ± 4.1% | 2.5 ± 2.5% | 0 ± 0% | 2.5 ± 2.5% | 7.5 ± 4.8% | 0 ± 0% | 0 ± 0% | 100 ± 0% | 24.0 | 63.4 | 8800 (8100–9400) d ng/mg body weight | 19,900 (18,600–21,600) d ng/mg body weight | 7600 (5000–9500) b ng/mg body weight | 24-h mortality Co-Toxicity Factor ([1]; 10 μg synergist + permethrin): 121; Oral LD50 [4]: 6160 (rt) mg compound per kg body weight; LD50 (95% CI) [5]: 13,200 (12,600–13,800) d ng/mg body weight; inhibition at 1000 µM [10]: 1.9 ± 0.3%; LD50 (95% CI) [6]: 11,300 (10,200–53,400) d ng/mg body weight; LD90 (95% CI) [6]: 42,000 (28,800–94,900) d ng/mg body weight; 1-h% Mean Knockdown ± SEM, Mixture [2, 14]: 83.3 ± 3.3%; 1-h knockdown Co-Toxicity Factor [2, 15]: −5; 24-h mortality Co-Toxicity Factor [2, 15]: −11; 48-h mortality Co-Toxicity Factor [2, 15]: −17; 24-h mortality Co-Toxicity Factor ([2]; 2 μg synergist + methomyl, >+20 potentiation, <−20 antagonism, −20 to +20 additive, listed as fenchone): negative; 1-h% Mean Knockdown ± SEM, Synergist Alone ([2]; 10 μg applied): 10 ± 4.1%; 24-h% Mean Mortality ± SEM, Synergist Alone ([2]; 10 μg applied): 2.5 ± 2.5%; 48-h% Mean Mortality ± SEM, Synergist Alone ([2]; 10 μg applied): 10 ± 4.1%; 1-h% Mean Knockdown ± SEM, Mixture [2, 16]: 93.3 ± 6.7%; 1-h knockdown Co-Toxicity Factor [2, 17]: −4; 24-h mortality Co-Toxicity Factor [2, 17]: 22; 48-h mortality Co-Toxicity Factor [2, 17]: 7; times as potent a synergist of permethrin as PBO [3]: 1.1; Dermal LD50 ([8]; in vivo): 5000 (rb) mg compound per kg body weight
